Data as given in US8318737B2, “Compounds and compositions for treating cancer” (Canthera Therapeutics Inc., priority 2009, dated 2012).
≈ marks a conversion by molar mass, not a printed value. Structures can show the parent of a compound that is named as a salt.

Legend:
[1] = precipitation of DMSO solution diluted 1:10 in phosphate buffered saline or water; type: physicochemical
Method: The compounds of the present invention may be produced using piperlongumine as a starting material yet offer numerous advantages over piperlongumine. […] The compounds of the instant invention are highly soluble in water at concentration of at least 25 mg/mL facilitating pharmaceutical preparation and delivery. Many chemotherapeutic agents transiently increase ROS levels in both cancer cells and normal cells.

[2] = solubility in water; type: physicochemical

solubility [2] [mg/mL] | SMILES | concentration in DMSO that precipitated out when diluted 1:10 [1] | solubility in water [2] [mg/mL]
– | COc1cc(/C=C/C(=O)N2CCC=CC2=O)cc(OC)c1OC [piperlongumine, Piperlongumine] | more than 0.25 mg/ml | 0.1 (≈ 315 µM)
100 | COc1cc(/C=C/C(=O)N2CCC=CC2=O)cc(OC)c1OCCN1CCOCC1 [tartrate salt of compound one] | – | –
